Molecules are shown by their SMILES. Counter-ions that a name gives are not always drawn. Some results are limits rather than exact numbers.

This is an account of results in patent US11958861B2, “Spirocyclic lactams as JAK2 V617F inhibitors” (Incyte Corporation, priority 2021, dated 2024).

For assay [1], the target named is T1, catalytic domain (JH1, amino acids 808-1132) of human JAK2 (Homo sapiens, UniProt O60674).
T1 construct: catalytic domain (JH1, amino acids 808-1132) of human JAK2; His (N); purchased BPS Bioscience 40450; host or cells: baculovirus expression system
T1 sequence (O60674 808-1132): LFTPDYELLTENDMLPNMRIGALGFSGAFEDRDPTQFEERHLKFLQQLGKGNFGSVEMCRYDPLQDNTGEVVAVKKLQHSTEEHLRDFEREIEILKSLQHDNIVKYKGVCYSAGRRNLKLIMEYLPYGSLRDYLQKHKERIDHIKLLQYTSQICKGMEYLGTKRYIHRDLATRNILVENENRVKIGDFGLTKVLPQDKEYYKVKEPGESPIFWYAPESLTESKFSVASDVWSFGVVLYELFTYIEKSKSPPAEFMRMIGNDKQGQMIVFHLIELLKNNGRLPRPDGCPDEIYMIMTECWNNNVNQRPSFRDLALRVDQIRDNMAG
As to the kind of experiment: JAK2 HTRF Enzyme Activity Assay. The format is biochemical. The following applies: ATP 30 μM, read-out: ENZ 30UMATP. The procedure, abridged:
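IC50 values come from a four-parameter fit of HTRF signal (Eu-PY20 antibody/streptavidin-APC, EDTA-quenched). Reaction: 0.015 nM N-His JAK2 catalytic domain (baculovirus), 500 nM biotin-peptide, 30 μM or 1 mM ATP, Tris pH 7.5 buffer, 60 min, 25° C.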
In general terms: Time-resolved FRET reads energy transfer from a long-lived donor to a nearby acceptor.

Assay [2] deals with T2, pseudo-kinase domain (JH2, amino-acids 536-812) of human V617F mutant JAK2 (Homo sapiens, UniProt O60674, F794H/V617F/W659A/W777A).
T2 construct: pseudo-kinase domain (JH2, amino-acids 536-812 with 3 surface mutations W659A, W777A, F794H); purchased BPS Bioscience 79498; host or cells: baculovirus expression system
T2 sequence (O60674 536-812 V617F/W659A/W777A/F794H): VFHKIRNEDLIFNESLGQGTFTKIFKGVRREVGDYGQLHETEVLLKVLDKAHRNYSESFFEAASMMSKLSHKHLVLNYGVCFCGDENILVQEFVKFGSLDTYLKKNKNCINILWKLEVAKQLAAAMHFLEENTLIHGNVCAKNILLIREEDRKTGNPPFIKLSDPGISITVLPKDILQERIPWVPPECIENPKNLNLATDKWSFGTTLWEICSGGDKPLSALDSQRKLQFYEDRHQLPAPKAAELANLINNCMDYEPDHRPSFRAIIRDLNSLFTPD
As to the kind of experiment: JAK2 LanthaScreen JH2-V617F Binding Assay. As to conditions: 1 hour at 25° C. The procedure, abridged:
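TR-FRET tracer displacement: 0.26 nM protein, 50 nM tracer, 0.25 nM SA-Tb, 50 mM Tris pH 7.5, 10 mM MgCl2, 5 mM DTT; 1 h, 25° C. NSB = 2 mM ATP. IC50, 4-parameter curve.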

In assay [3] the target is T3, pseudo-kinase domain (JH2, amino-acids 536-812) of human Wild Type JAK2 (Homo sapiens, UniProt O60674, F794H/W659A/W777A).
T3 construct: pseudo-kinase domain (JH2, amino-acids 536-812 with 3 surface mutations W659A, W777A, F794H); purchased BPS Bioscience 79463; host or cells: baculovirus expression system
T3 sequence (O60674 536-812 W659A/W777A/F794H): as the sequence (O60674 536-812 V617F/W659A/W777A/F794H) above, with F82V counted along it
As to the kind of experiment: JAK2 LanthaScreen JH2-WT Binding Assay. The following applies: 1 hour at 25° C. The procedure, abridged:
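Biotinylated C-terminal His-Avi-tagged JH2 (residues 536-812, baculovirus-expressed) at 0.145 nM was incubated with serially diluted compounds, 50 nM fluorescent JAK2-JH2 tracer and 0.25 nM streptavidin-Tb cryptate in pH 7.5 Tris buffer with MgCl2, Brij-35, BSA, EGTA, glycerol and DTT. LanthaScreen TR-FRET was read after 1 hour at 25° C; IC50 came from four-parameter fits.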

Assay [4] has as its target T4, catalytic domain (JH1, amino acids 826-1132) of human JAK2 (Homo sapiens, UniProt O60674).
T4 construct: catalytic domain (JH1, amino acids 826-1132) of human JAK2; purchased Carna Biosciences 08-445-20N; host or cells: baculovirus expression system
As to the kind of experiment: JAK2 LanthaScreen JH1 Binding Assay. As to conditions: 2 hours at 25° C. The procedure, abridged: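 Reaction held 1.5 nM biotinylated FLAG-JAK2 JH1, 50 nM tracer and 0.5 nM streptavidin-Tb in pH 7.5 Tris buffer; 2 mM ATP defined nonspecific binding.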

T4 sequence (O60674 826-1132): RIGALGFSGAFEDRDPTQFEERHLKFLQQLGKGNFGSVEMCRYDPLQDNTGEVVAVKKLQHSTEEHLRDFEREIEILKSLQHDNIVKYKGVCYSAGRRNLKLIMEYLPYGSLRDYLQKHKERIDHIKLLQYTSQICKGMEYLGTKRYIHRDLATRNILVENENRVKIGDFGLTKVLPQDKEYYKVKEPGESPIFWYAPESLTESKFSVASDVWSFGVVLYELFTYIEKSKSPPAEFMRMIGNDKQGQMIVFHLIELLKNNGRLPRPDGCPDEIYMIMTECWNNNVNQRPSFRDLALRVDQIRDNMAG

In the case of `CCS(=O)(=O)N1CCC[C@@]2(CC1)C(=O)N(C)c1cnc3[nH]c(-c4cnn(C(C)C)c4)c(-c4ccc5c(cnn5C)c4)c3c12` (single isomer, unassigned) [Example 53b], the IC50 in assay [1] is 100 to 500 nM; in assay [2] it was at most 100 nM; in assay [3], at most 100 nM; in assay [4] it was 100 to 500 nM.

In the case of `CN1C(=O)[C@]2(CCN(CC3(CC#N)CC3)C2)c2c1cnc1[nH]c(-c3cnn(C)c3)c(-c3ccc4c(cnn4C)c3)c21` (single isomer, unassigned) [Example 65], the IC50 is over 2500 nM in assay [1], at most 100 nM in assay [2], at most 100 nM in assay [3] and over 2500 nM in assay [4].

In the case of `CN1C(=O)[C@@]2(CCN(CC3(CC#N)CC3)C2)c2c1cnc1[nH]c(-c3cnn(C)c3)c(-c3ccc4c(cnn4C)c3)c21` (single isomer, unassigned) [Example 66], the IC50 in assay [1] is 500 to 1250 nM; in assay [2], at most 100 nM; in assay [3], at most 100 nM; in assay [4], 500 to 1250 nM.

Consider `CO[C@H]1CC[C@@](CC#N)(N2CCC3(CC2)C(=O)N(C)c2cnc4[nH]c(-c5cnn(C)c5)c(-c5ccc6c(cnn6C)c5)c4c23)CC1` (single isomer, unassigned) [Example 75a, 2-(4-Methoxy-1-(6-methyl-1-(1-methyl-1H-indazol-5-yl)-2-(1-methyl-1H-pyrazol-4-yl)-7-oxo-6,7-dihydro-3H-spiro[dipyrrolo[2,3-b:3′,2′-d]pyridine-8,4′-piperidin]-1′-yl)cyclohexyl)acetonitrile], for which the IC50 is 100 to 500 nM in assay [1], at most 100 nM in assay [2], at most 100 nM in assay [3] and 100 to 500 nM in assay [4].

Regarding `[2H]C([2H])([2H])n1ncc2cc(-c3c(-c4cnn(C)c4)[nH]c4ncc5c(c34)C3(CCN([C@](C)(CC#N)COC)CC3)C(=O)N5C)ccc21` (single isomer, unassigned) [Example 80a], the IC50 was 1250 to 2500 nM in assay [1], at most 100 nM in assay [2], at most 100 nM in assay [3] and 1250 to 2500 nM in assay [4].

With `[2H]C([2H])([2H])n1ncc2cc(-c3c(-c4cnn(C)c4)[nH]c4ncc5c(c34)C3(CCN([C@@](C)(CC#N)COC)CC3)C(=O)N5C)ccc21` (single isomer, unassigned) [Example 80b], the IC50 in assay [1] was 500 to 1250 nM; in assay [2] it was at most 100 nM; in assay [3], at most 100 nM; in assay [4] it was 500 to 1250 nM.

For the compound `[2H]C([2H])([2H])N1C(=O)C2(CCCN(S(=O)(=O)C3(C)CC3)CC2)c2c1cnc1[nH]c(-c3cnn(C(C)C)c3)c(-c3ccc4c(cnn4C)c3)c21` (single isomer, unassigned) [Example 103, 2′-(1-Isopropyl-1H-pyrazol-4-yl)-6′-(methyl-d3)-1′-(1-methyl-1H-indazol-5-yl)-1-((1-methylcyclopropyl)sulfonyl)-3′,6′-dihydro-7′H-spiro[azepane-4,8′-dipyrrolo[2,3-b:3′,2′-d]pyridin]-7′-one, trifluoroacetate salt], the IC50 in assay [1] is 500 to 1250 nM; in assay [2], at most 100 nM; in assay [3], at most 100 nM; in assay [4] it was 100 to 500 nM.

Regarding `CN1C(=O)C2(CCOCC2)c2c1cnc1[nH]c(-c3ccc(CN4CCC(S(C)(=O)=O)CC4)cc3)c(-c3ccccc3)c21` [Example 1, 6-Methyl-2-(4-((4-(methylsulfonyl)piperidin-1-yl)methyl)phenyl)-1-phenyl-2′,3,3′,5′,6,6′-hexahydro-7H-spiro[dipyrrolo[2,3-b:3′,2′-d]pyridine-8,4′-pyran]-7-one], the IC50 in assay [1] was 1250 to 2500 nM; in assay [2], at most 100 nM; in assay [3], at most 100 nM; in assay [4] it was 1250 to 2500 nM.

On to `CC(=O)N1CCC(N2CC3(C2)C(=O)N(C)c2cnc4[nH]c(-c5ccc(CN6CCC(S(C)(=O)=O)CC6)cc5)c(-c5ccccc5)c4c23)CC1` [Example 3], for which the IC50 in assay [1] was over 2500 nM; in assay [2], 100 to 500 nM; in assay [3] it was 100 to 500 nM; in assay [4] it was over 2500 nM.

On to `CN1C(=O)C2(CCN(CCC#N)CC2)c2c1cnc1[nH]c(-c3ccc(CN4CCC(S(C)(=O)=O)CC4)cc3)c(-c3ccccc3)c21` [Example 4, 3-(6-Methyl-2-((4(4-(methylsulfonyl)piperidin-1-yl)methyl)phenyl)-7-oxo-1-phenyl-6,7-dihydro-3H-spiro[dipyrrolo[2,3-b:3′,2′-d]pyridine-8,4′-piperidin]-1′-yl)propanenitrile trifluoroacetate salt], for which the IC50 in assay [1] was 500 to 1250 nM; in assay [2] it was at most 100 nM; in assay [3], at most 100 nM; in assay [4] it was 500 to 1250 nM.

For `CN1C(=O)C2(CCN(CCC#N)CC2)c2c1cnc1[nH]c(-c3ccc(CN4CCC(S(C)(=O)=O)CC4)cc3)c(-c3ccc4c(cnn4C)c3)c21` [Example 5, 3-(6-Methyl-1-(1-methyl-1H-indazol-5-yl)-2-(4-((4-(methylsulfonyl)piperidin-1-yl)methyl)phenyl)-7-oxo-6,7-dihydro-3H-spiro[dipyrrolo[2,3-b:3′,2′-d]pyridine-8,4′-piperidin]-1′-yl)propanenitrile trifluoroacetate salt], the IC50 in assay [1] is 500 to 1250 nM; in assay [2], at most 100 nM; in assay [3] it was at most 100 nM; in assay [4] it was 500 to 1250 nM.

For the compound `CN1C(=O)C2(CCN(c3cnn(C4(CC#N)CCOCC4)c3)CC2)c2c1cnc1[nH]c(-c3cnn(C)c3)c(-c3ccccc3)c21` [Example 6, 2-(4-(4-(6-Methyl-2-(1-methyl-1H-pyrazol-4-yl)-7-oxo-1-phenyl-6,7-dihydro-3H-spiro[dipyrrolo[2,3-b:3′,2′-d]pyridine-8,4′-piperidin]-1′-yl)-1H-pyrazol-1-yl)tetrahydro-2H-pyran-4-yl)acetonitrile trifluoroacetate salt], the IC50 in assay [1] is over 2500 nM; in assay [2], at most 100 nM; in assay [3], at most 100 nM; in assay [4] it was over 2500 nM.

As for `[2H]C([2H])([2H])n1cc(-c2[nH]c3ncc4c(c3c2-c2ccc3c(cnn3C)c2)C2(CCN(CCC#N)CC2)C(=O)N4C)cn1` [Example 7, 3-(6-Methyl-1-(1-methyl-1H-indazol-5-yl)-2-(1-(methyl-d3)-1H-pyrazol-4-yl)-7-oxo-6,7-dihydro-3H-spiro[dipyrrolo[2,3-b:3′,2′-d]pyridine-8,4′-piperidin]-1′-yl)propanenitrile], the IC50 in assay [1] is 1250 to 2500 nM; in assay [2], at most 100 nM; in assay [3] it was at most 100 nM; in assay [4] it was 1250 to 2500 nM.

With `CN1C(=O)C2(CCCC2)c2c1cnc1[nH]c(-c3cnn(Cc4ccncc4)c3)c(-c3ccc4c(cnn4C)c3)c21` [Example 8, 6′-Methyl-1′-(1-methyl-1H-indazol-5-yl)-2′-(1-(pyridin-4-ylmethyl)-1H-pyrazol-4-yl)-3′,6′-dihydro-7′H-spiro[cyclopentane-1,8′-dipyrrolo[2,3-b:3′,2′-d]pyridin]-7′-one trifluoroacetate salt], the IC50 in assay [1] was over 2500 nM; in assay [2] it was at most 100 nM; in assay [3] it was at most 100 nM; in assay [4] it was 1250 to 2500 nM.

Consider `CN1C(=O)C2(CCCC2)c2c1cnc1[nH]c(C3CC3)c(-c3ccc4c(cnn4C)c3)c21` [Example 9, 2′-Cyclopropyl-6′-methyl-1′-(1-methyl-1H-indazol-5-yl)-3′,6′-dihydro-7′H-spiro[cyclopentane-1,8′-dipyrrolo[2,3-b:3′,2′-d]pyridin]-7′-one, trifluoroacetate salt], for which the IC50 in assay [1] was over 2500 nM; in assay [2] it was 100 to 500 nM; in assay [3], 100 to 500 nM; in assay [4], over 2500 nM.
